Data reported in paper PMC4416488 (Bioorganic & medicinal chemistry letters, 2015).

Key:
[1] = tested on: tubulin; assay: Inhibition of tubulin assembly
[2] = tested on: A549 human lung cancer cell line; assay: Cytotoxic activity against A549 lung cancer cell line

COC(=O)Nc1nc2ccc(/C=C\c3cc(OC)c(OC)c(OC)c3)cc2[nH]1 [Compound 1]
Activity as tubulin polymerization/assembly inhibitor (in words) [1]: excellent activities

COC(=O)Nc1nc2ccc(C(=O)c3ccc(OC)cc3O)cc2[nH]1 [Compound 2]
Activity as tubulin polymerization/assembly inhibitor (in words) [1]: excellent activities | Cytotoxic activity against A549 cell line (in words) [2]: no activity

COC(=O)Nc1nc2ccc(C(=O)c3ccc(O)cc3O)cc2[nH]1 [Compound 3]
Activity as tubulin polymerization/assembly inhibitor (in words) [1]: inactive | Cytotoxic activity against A549 cell line (in words) [2]: no activity

COC(=O)Nc1nc2ccc(C(=O)c3sccc3O)cc2[nH]1 [Compound 4]
Activity as tubulin polymerization/assembly inhibitor (in words) [1]: excellent activities
